The source of these data is patent US20100081690A1, “OXAZOLE DERIVATIVES AS POSITIVE ALLOSTERIC MODULATORS OF METABOTROPIC GLUTAMATE RECEPTORS” (ADDEX PHARMA SA, priority 2006, published 2010).

The target in this experiment is T1, mGluR5 (Rattus norvegicus, UniProt P31424).
T1 construct: positive allosteric modulators of mGluR5 receptors in native preparations; endogenous in cells; host or cells: primary cortical astrocytes from Sprague-Dawley rat embryos (E16-19)
Put plainly: mGluR5 assay on rat cultured cortical astrocytes (Ca2+ mobilization, FLIPR). The experiment is classed as cell-based. The note with it: in the presence of 300 nM glutamate. The text has this: Under exposure to growth factors (basic fibroblast growth factor, epidermal growth factor), rat cultured astrocytes express group I-Gq coupled mGluR transcripts, namely mGluR5, but none of the splice variants of mGluR1, and as a consequence, a functional expression of mGluR5 receptors (Miller et al. (1995) J. Neurosci. 15:6103-9): The stimulation of mGluR5 receptors with selective agonist CHPG and the full blockade of the glutamate-induced phosphoinositide (PI) hydrolysis and subsequent intracellular calcium mobilization with specific antagonist as MPEP confirm the unique expression of mGluR5 receptors in this preparation. […]
After one day of incubation, cells were washed with assay buffer containing: 142 mM NaCl, 6 mM KCl, 1 mM Mg2SO4, 1 mM CaCl2, 20 mM HEPES, 1 g/L glucose, 0.125 mM sulfinpyrazone, pH 7.4. […] The plates were then transferred to a Fluorometric Imaging Plate Reader (FLIPR, Molecular Devices, Sunnyvale, Calif.) for the assessment of intracellular calcium flux. After monitoring the baseline fluorescence for 10 s, a solution containing […] of representative compound of the present invention diluted in Assay Buffer (15 μl of 4× dilutions) was added to the cell plate in the absence or in the presence of 300 nM of glutamate. […] In each experiment, fluorescence was then monitored as a function of time for 3 minutes and the data analyzed using Microsoft Excel and GraphPad Prism. […]
In general terms: A change in cytosolic calcium serves as a functional read-out for many receptors and channels.

For orientation: EC50 means the midpoint of the concentration-response curve.

T1 sequence (P31424 21-1203): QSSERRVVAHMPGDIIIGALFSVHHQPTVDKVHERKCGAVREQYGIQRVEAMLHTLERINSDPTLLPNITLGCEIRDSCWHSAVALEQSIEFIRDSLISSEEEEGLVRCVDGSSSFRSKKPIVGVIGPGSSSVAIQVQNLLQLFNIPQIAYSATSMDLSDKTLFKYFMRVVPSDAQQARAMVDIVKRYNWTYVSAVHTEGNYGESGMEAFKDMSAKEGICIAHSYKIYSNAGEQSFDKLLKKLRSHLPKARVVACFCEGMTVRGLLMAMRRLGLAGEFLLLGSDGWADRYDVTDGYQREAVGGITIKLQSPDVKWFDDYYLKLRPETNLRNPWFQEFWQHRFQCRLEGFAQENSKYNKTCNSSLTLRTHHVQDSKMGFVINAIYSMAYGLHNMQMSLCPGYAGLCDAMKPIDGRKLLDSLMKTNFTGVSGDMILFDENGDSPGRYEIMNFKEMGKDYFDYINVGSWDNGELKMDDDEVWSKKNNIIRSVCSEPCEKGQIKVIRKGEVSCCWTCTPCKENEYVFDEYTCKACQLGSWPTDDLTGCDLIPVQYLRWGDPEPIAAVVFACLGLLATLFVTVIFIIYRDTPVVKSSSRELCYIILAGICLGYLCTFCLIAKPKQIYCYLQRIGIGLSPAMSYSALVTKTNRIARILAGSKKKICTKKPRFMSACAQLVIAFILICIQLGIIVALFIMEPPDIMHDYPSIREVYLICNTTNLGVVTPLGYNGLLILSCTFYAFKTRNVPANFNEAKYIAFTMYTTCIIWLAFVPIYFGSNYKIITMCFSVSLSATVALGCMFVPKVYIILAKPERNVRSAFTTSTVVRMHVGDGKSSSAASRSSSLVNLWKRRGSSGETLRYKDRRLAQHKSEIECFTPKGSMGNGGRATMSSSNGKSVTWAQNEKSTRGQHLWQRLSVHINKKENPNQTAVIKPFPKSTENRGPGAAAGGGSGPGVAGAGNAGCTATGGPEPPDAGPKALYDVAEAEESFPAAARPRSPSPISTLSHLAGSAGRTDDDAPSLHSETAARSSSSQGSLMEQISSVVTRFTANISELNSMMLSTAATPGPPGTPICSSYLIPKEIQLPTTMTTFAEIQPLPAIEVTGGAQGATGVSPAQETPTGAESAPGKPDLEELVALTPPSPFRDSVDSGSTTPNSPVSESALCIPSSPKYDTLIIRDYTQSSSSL

`O=C(c1ccc(F)cc1)N1CCC[C@H](c2nc(-c3cc(F)c[nH]3)co2)C1` [Example 1, (4-Fluoro-phenyl)-{(S)-3-[4-(4-fluoro-1H-pyrrol-2-yl)-oxazol-2-yl]-piperidin-1-yl}-methanone]: the EC50 was under 1000 nM.
